Reference: patent EP1900728A1 (Genecare Research Institute Co., Ltd, priority 2005, dated 2006)
pIC50: −log10 of the molar value.

These molecules were tested against T1, IκBα ubiquitinating enzyme (SCF complex: ROC1, Cullin1, Skp1, His-TrCP1; with E1, UbcH5b) (Homo sapiens, UniProt P62877+P63208+Q13616+Q9Y297) (assay: Measurement of ubiquitinating enzyme activity (IκBα ubiquitination, time-resolved fluorescence with Eu(K)-labeled ubiquitin and XL665-labeled anti-GST antibody)). Details: enzyme activity inhibition test, method (1), Table 5; read-out: EVALUATION.
T1 construct: His (polyhistidine); made in house; host or cells: insect cells (baculovirus) for the SCF complex and His-E1; E. coli for His-UBCH5b
T1 sequence (Q9Y297 whole entry): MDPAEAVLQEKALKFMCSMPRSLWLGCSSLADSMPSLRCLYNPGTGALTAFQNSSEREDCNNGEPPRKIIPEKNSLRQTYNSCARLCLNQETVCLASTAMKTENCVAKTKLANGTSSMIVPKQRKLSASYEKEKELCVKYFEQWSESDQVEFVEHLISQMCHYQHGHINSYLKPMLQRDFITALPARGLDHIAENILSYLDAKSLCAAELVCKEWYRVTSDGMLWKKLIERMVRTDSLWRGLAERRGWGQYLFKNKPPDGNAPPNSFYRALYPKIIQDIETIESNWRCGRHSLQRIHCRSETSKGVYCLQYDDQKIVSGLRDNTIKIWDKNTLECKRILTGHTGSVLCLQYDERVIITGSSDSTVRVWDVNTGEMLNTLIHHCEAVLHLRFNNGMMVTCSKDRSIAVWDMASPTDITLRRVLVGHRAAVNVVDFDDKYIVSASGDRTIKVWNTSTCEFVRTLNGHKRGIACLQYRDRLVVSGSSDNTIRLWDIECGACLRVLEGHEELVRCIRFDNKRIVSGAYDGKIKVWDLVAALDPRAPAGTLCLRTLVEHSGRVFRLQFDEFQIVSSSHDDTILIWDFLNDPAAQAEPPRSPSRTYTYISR
T1 sequence (Q13616 whole entry): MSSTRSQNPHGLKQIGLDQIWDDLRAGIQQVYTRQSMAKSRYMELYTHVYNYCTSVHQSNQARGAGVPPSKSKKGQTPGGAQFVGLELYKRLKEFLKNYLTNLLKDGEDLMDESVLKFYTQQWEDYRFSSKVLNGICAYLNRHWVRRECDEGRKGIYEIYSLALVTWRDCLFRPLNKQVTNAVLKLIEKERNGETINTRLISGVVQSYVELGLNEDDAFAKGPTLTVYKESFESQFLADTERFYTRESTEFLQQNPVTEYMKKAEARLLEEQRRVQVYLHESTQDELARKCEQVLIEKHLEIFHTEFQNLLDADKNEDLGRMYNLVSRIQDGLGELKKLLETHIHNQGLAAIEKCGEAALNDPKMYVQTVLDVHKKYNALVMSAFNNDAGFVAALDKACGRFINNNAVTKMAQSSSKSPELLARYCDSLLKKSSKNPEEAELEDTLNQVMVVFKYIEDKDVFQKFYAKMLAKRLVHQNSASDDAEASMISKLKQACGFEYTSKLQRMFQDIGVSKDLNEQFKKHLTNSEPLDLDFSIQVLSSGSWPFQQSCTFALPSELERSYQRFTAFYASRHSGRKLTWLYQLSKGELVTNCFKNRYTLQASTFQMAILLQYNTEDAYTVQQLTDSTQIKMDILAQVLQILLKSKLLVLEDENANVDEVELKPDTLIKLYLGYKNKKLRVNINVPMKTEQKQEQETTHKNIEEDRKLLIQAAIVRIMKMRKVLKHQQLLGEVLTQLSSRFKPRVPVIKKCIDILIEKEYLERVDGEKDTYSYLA
T1 sequence (P63208 whole entry): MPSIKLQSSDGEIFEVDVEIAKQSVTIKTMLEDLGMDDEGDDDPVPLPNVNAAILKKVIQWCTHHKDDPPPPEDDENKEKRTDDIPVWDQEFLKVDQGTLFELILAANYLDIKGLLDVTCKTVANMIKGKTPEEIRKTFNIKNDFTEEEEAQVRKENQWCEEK
T1 sequence (P62877 whole entry): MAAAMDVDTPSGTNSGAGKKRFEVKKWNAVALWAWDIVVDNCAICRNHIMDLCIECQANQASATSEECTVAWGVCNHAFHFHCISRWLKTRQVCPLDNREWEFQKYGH
Format: biochemical
Method: Method 1: Measurement of ubiquitinating enzyme activity
A recombinant vector His-UBCH5b containing a polyhistidine tag (His) and UBCH5b was prepared. E. coli was transformed with the vector, the protein was expressed, and affinity purification was carried out using Ni-NTA agarose (Qiagen). Four types of recombinant baculoviruses (ROC1, Cullin1, Skp1, and His-TrCP1) were prepared for the SCF complex protein, insect cells were infected in quadruplicate for expression, and affinity purification was carried out using Ni-NTA agarose. Recombinant baculoviruses His-IKKβ, His-E1 were prepared. The insect cells were infected with each of those for expression, and affinity purification was carried out using Ni-NTA agarose. A recombinant vector GST-IκBα was prepared by fusing glutathione-S-transferase tag (GST) and IκBα, E. coli was transformed with the vector for the protein expression, and affinity purification was carried out using glutathione sepharose (Amersham Biosciences). Genetic transformants were prepared by PCR amplification followed by recombination, all of which were based on published human-derived sequences.
Phosphorylation reaction of IκBα was performed by incubating the above-mentioned assay buffer (50 mM Tris-HCl (pH7.4), 2 mM ATP, 5 mM MgCl2, 0.5 mM DTT, 0.1% BSA) containing IκBα and IKKβ at room temperature for 1 hour. Ubiquitination reactions were carried out as follows. Compound samples at various concentrations, ubiquitin, Eu (K)-labeled ubiquitin, E1, UbcH5b, and SCF complex were added to phosphorylated IκBα, and then this was incubated at room temperature for 30 minutes. The reaction was terminated by adding EDTA, the above-mentioned revelation buffer (100 mM phosphate buffer (pH7.0), 0.5 M KF, 0.1% BSA) containing XL665-labeled anti-GST antibody was added and this was left to stand at room temperature for 2 hours. Measurements were made using ARVO-HTS (Perkin Elmer). The ratio of fluorescence intensities at 620 nm and 665 nm (Em 665 nm/Em 620 nm x 10,000) with excitation light at 337 nm was measured.
The ubiquitination level without the addition of a compound sample was used as the control value, and the level in the absence of SCF complex was used as the blank value for the assays. Inhibitory activities of the compounds were indicated as % inhibition = 100 - (value with a compound sample added - blank value) / (control value - blank value) x 100. IC50 was indicated as the concentration of the compound showing 50% inhibition. Eu (K)-labeled ubiquitin, XL665-labeled anti-GST antibody, and XL665-labeled anti-His antibody were purchased from CIS bio international. Costar solid black plates (96 wells) were used for the assays.
Molecule `COc1cc(/C=C2\C(=O)N(c3ccc(S(N)(=O)=O)cc3)N=C2C)ccc1OCn1nnc2ccccc21` [Compound 156] has a pIC50 of 4.70 to 5.00. `CCCCC1=NN(c2ccccc2)C(=O)C1=Cc1ccc(N2CCN(C)CC2)cc1` [Compound 106] showed a pIC50 of over 4.40. Work on `O=C(O)c1ccc(N2N=C(Cc3ccccc3)/C(=C/c3ccc(-n4cncn4)cc3)C2=O)cc1` [Compound 276] yielded a pIC50 of over 4.40. Work on `COc1ccc(C2=NN(c3ccc(C(=O)O)cc3)C(=O)/C2=C\c2cccc3nccnc23)cc1OC` [Compound 278] yielded a pIC50 of over 4.40. `O=C(O)c1ccc(N2N=C(c3ccoc3)C(=Cc3ccc(N4CCC(O)CC4)s3)C2=O)cc1` [Compound 251] was tested, and the pIC50 was over 4.40. With `CC1=NN(c2cccc(C(=O)NCC3CC3)c2)C(=O)/C1=C\c1ccc2c(c1)OCCO2` [Compound 404] the pIC50 was over 4.40. Molecule `CC1=NN(c2cccc(C(=O)O)c2)C(=O)/C1=C\c1ccc(N2CCC(CO)CC2)cc1` [Compound 421] has a pIC50 of over 5.00. In the case of `CC1=NN(c2cccc(C(=O)N(C)CCO)c2)C(=O)/C1=C\c1ccc2c(c1)OCCO2` [Compound 414], the pIC50 was 4.70 to 5.00. `CCCCC1=NN(c2ccccc2)C(=O)/C1=C\c1ccc(OCc2ccccc2)c(OC)c1` [Compound 52] was tested, and the pIC50 was over 4.40. `O=C1/C(=C\c2ccc(CO)o2)C(c2cccnc2)=NN1c1ccccc1` [Compound 64] gave a pIC50 of over 4.40. `CC1=NN(c2cccc(C(=O)O)c2)C(=O)/C1=C\c1ccc2cc[nH]c2c1` [Compound 381] showed a pIC50 of over 5.00. With `O=C1/C(=C\c2ccc(-n3cncn3)cc2)C(Cc2ccccc2)=NN1c1ccccc1` [Compound 31] the pIC50 was over 4.40. With `O=C1/C(=C\c2ccc(CO)o2)C(c2ccccn2)=NN1c1ccccc1` [Compound 48] the pIC50 was over 4.40. Work on `CC1=NN(c2ccc(S(N)(=O)=O)cc2)C(=O)C1=Cc1ccc(NC(=O)c2ccco2)cc1` [Compound 231] yielded a pIC50 of over 5.00. Work on `CC(C)(C)OC(=O)N1CCN(C(=O)C2=NN(c3ccccc3)C(=O)C2=Cc2ccc(N3CCCC3)cc2)CC1` [Compound 89] yielded a pIC50 of over 4.40. For `O=C1/C(=C\c2ccc(CO)o2)C(c2ccncc2)=NN1c1ccccc1` [Compound 44], the pIC50 was over 4.40. `COC(=O)N1CCN(c2ccc(/C=C3\C(=O)N(c4ccccc4)N=C3c3cccnc3)cc2)CC1` [Compound 62] was tested, and the pIC50 was over 4.40. For `O=C(O)c1ccc(N2N=C(c3ccoc3)/C(=C/c3ccc4c(c3)OCCO4)C2=O)cc1` [Compound 330], the pIC50 was over 5.00. Molecule `O=C(O)c1ccc(N2N=C(c3ccncc3)C(=Cc3ccc4c(c3)OCCO4)C2=O)cc1` [Compound 288] has a pIC50 of 4.70 to 5.00. In the case of `COc1cc(/C=C2\C(=O)N(c3cccc(S(N)(=O)=O)c3)N=C2C)ccc1OCc1c(C)noc1C` [Compound 153], the pIC50 was over 4.40. Molecule `CC1=NN(c2ccc(C(=O)N3CCC(C(=O)O)CC3)cc2)C(=O)/C1=C\c1ccc2[nH]ccc2c1` [Compound 352] has a pIC50 of over 5.00. For `COCC1=NN(c2ccc(C(=O)O)cc2)C(=O)/C1=C\c1cccc2nccnc12` [Compound 327], the pIC50 was over 5.00. `CC1=NN(c2ccc(S(N)(=O)=O)cc2)C(=O)/C1=C\c1ccc(C(=O)O)cc1` [Compound 223] gave a pIC50 of 4.70 to 5.00. In the case of `CCOC(=O)CN1N=C(C)/C(=C/c2ccc(O)c(OC)c2)C1=O` [Compound 130], the pIC50 was 4.70 to 5.00. `CC1=NN(c2ccc(S(N)(=O)=O)cc2)C(=O)C1=Cc1cccc(C(=O)O)c1` [Compound 222] gave a pIC50 of 4.70 to 5.00. Work on `O=C(O)c1ccc(N2N=C(c3cccnc3)/C(=C/c3ccc(-c4ccccc4F)o3)C2=O)cc1` [Compound 339] yielded a pIC50 of 4.70 to 5.00. In the case of `CC1=NN(c2cccc(C(=O)N3CCCCC3)c2)C(=O)/C1=C\c1ccc2[nH]ccc2c1` [Compound 369], the pIC50 was over 5.00. In the case of `CC1=NN(c2ccc(C(=O)O)cc2)C(=O)/C1=C\c1cc2ccccc2n1C` [Compound 360], the pIC50 was over 5.00. `CC1=NN(c2cccc(S(N)(=O)=O)c2)C(=O)/C1=C\c1ccc(N2CCC(O)C2)cc1` (stereo not drawn) [Compound 178] was tested, and the pIC50 was over 4.40. For `CC1=NN(c2cccc(C(=O)N3CCC(CO)CC3)c2)C(=O)/C1=C\c1ccc2[nH]ccc2c1` [Compound 371], the pIC50 was over 5.00. `O=C(O)c1ccc(N2N=C(Cc3ccccc3)/C(=C/c3ccc(N4CCCC4)cc3)C2=O)cc1` [Compound 269] gave a pIC50 of 4.70 to 5.00. Molecule `CC1=NN(c2ccc(S(=O)(=O)N3CCC(O)CC3)cc2)C(=O)/C1=C\c1ccc2c(c1)OCO2` [Compound 162] has a pIC50 of over 4.40. Work on `CC1=NN(c2cccc(C(=O)O)c2)C(=O)/C1=C\c1ccc(-n2cccn2)cc1` [Compound 379] yielded a pIC50 of over 5.00. Work on `COc1cc(/C=C2/C(=O)N(c3ccccc3F)N=C2C)ccc1O` [Compound 197] yielded a pIC50 of over 4.40. In the case of `CC1=NN(c2cccc(C(=O)O)c2)C(=O)/C1=C\c1ccc(N2CCNCC2)cc1` [Compound 452], the pIC50 was over 5.00. Molecule `CC1=NN(c2cccc(S(N)(=O)=O)c2)C(=O)/C1=C\c1ccc(N2CCC(CO)CC2)cc1` [Compound 173] has a pIC50 of over 4.40. `COc1cc(C=C2C(=O)N(c3ccc(C(C)(C)C)cc3)N=C2C)ccc1O` [Compound 196] gave a pIC50 of over 5.00. For `Cn1cc(-c2ccc(/C=C3\C(=O)N(c4cccc(C(=O)O)c4)N=C3Cc3ccccc3)o2)cn1` [Compound 510], the pIC50 was over 4.40. `CC1=NN(c2cccc(C(=O)O)c2)C(=O)/C1=C\c1ccc(N2CCN(C(=O)c3cnoc3)CC2)cc1` [Compound 445] gave a pIC50 of over 5.00. For `CC1=NN(c2ccccc2)C(=O)/C1=C\c1ccc(N2CCN(C)CC2)cc1` [Compound 99], the pIC50 was 4.70 to 5.00. Molecule `CC1=NN(c2ccccc2)C(=O)/C1=C\c1ccc(OCCCN(C)C)cc1` [Compound 217] has a pIC50 of over 4.40. `CC1=NN(c2cccc(C(=O)NC[C@H](C)O)c2)C(=O)/C1=C\c1ccc2c(c1)OCCO2` [Compound 401] showed a pIC50 of 4.70 to 5.00. `CC1=NN(c2ccc(C(=O)O)cc2)C(=O)/C1=C\c1nccs1` [Compound 257] gave a pIC50 of over 4.40. Molecule `COC(=O)N1CCN(c2ccc(/C=C3\C(=O)N(c4ccccc4)N=C3c3ccncc3)cc2)CC1` [Compound 42] has a pIC50 of over 4.40. `CN1CCN(c2ccc(/C=C3\C(=O)N(c4ccccc4)N=C3Cc3ccccc3)cc2)CC1` [Compound 100] was tested, and the pIC50 was over 4.40. Molecule `COc1ccc(C2=NN(c3ccccc3)C(=O)/C2=C\c2ccc3ccccc3c2)cc1OC` [Compound 97] has a pIC50 of 4.70 to 5.00. With `CC(=O)OCc1ccc(/C=C2\C(=O)N(c3cccc(C(=O)O)c3)N=C2C)o1` [Compound 516] the pIC50 was over 4.40. For `COCCNC(=O)c1cccc(N2N=C(C)/C(=C/c3ccc4c(c3)OCCO4)C2=O)c1` [Compound 405], the pIC50 was over 4.40. `CC1=NN(c2cccc(C(=O)O)c2)C(=O)/C1=C\c1ccc(N2CCN(S(C)(=O)=O)CC2)cc1` [Compound 447] was tested, and the pIC50 was over 5.00. `CC1=NN(c2cccc(C(=O)O)c2)C(=O)C1=Cc1cc2ccccc2n1C` [Compound 359] was tested, and the pIC50 was over 5.00. Molecule `CC1=NN(c2cccc(C(=O)O)c2)C(=O)/C1=C\c1ccc2c(ccn2C(=O)c2ccccc2)c1` [Compound 529] has a pIC50 of over 5.00. For `COCCC1=NN(c2cccc(C(=O)O)c2)C(=O)/C1=C\c1ccc(-c2ccccc2F)o1` [Compound 526], the pIC50 was over 4.40. For `CC(C)(C)OC(=O)N1CCN(C(=O)C2=NN(c3ccccc3)C(=O)/C2=C\c2ccc(-c3ccccc3F)o2)CC1` [Compound 88], the pIC50 was over 4.40. Molecule `COC(=O)N1CCN(c2ccc(/C=C3\C(=O)N(c4ccccc4)N=C3C)cc2)CC1` [Compound 95] has a pIC50 of over 4.40. `NS(=O)(=O)c1ccc(N2N=C(C3CC3)/C(=C/c3ccc(-n4cncn4)cc3)C2=O)cc1` [Compound 111] was tested, and the pIC50 was over 4.40. In the case of `O=C1/C(=C\c2ccc(-n3cccn3)cc2)C(C2CC2)=NN1c1ccccc1` [Compound 79], the pIC50 was over 4.40. In the case of `O=C(O)c1ccc(N2N=C(c3ccccn3)/C(=C/c3ccc(N4CCC(O)CC4)s3)C2=O)cc1` [Compound 293], the pIC50 was over 4.40. With `CC1=NN(c2ccc(S(N)(=O)=O)cc2)C(=O)/C1=C\c1ccc(OCC(=O)N(C)C)cc1` [Compound 209] the pIC50 was 4.70 to 5.00. With `CC1=NN(c2ccc(C(=O)O)cc2)C(=O)/C1=C\c1ccc(N2CCC(CO)CC2)cc1` [Compound 426] the pIC50 was 4.70 to 5.00. Work on `CC1=NN(c2ccc(C(=O)O)cc2)C(=O)/C1=C\c1c(C)nn(C)c1Cl` [Compound 514] yielded a pIC50 of over 4.40. With `COCC1=NN(c2cccc(C(=O)O)c2)C(=O)/C1=C\c1ccc(N2CCCC2)cc1` [Compound 471] the pIC50 was 4.70 to 5.00. `CC1=NN(c2cccc(S(N)(=O)=O)c2)C(=O)/C1=C\c1ccc2occc2c1` [Compound 143] showed a pIC50 of over 4.40. `CC1=NN(c2cccc(C(=O)O)c2)C(=O)/C1=C\c1ccc(N2CCC(N3CCCC3)CC2)cc1` [Compound 435] showed a pIC50 of 4.70 to 5.00.
